Data reported in EP3884941A1, “INFLAMMASOME INHIBITORS AND USE THEREOF” (CENTRO DE INVESTIGACION PRINCIPE FELIPE, priority 2020, dated 2021).

Test system: AIM2 inflammasome
Test: AIM2 inflammasome activation, poly(dA:dT), PMA-differentiated THP-1 cells
Type: cell-based, human
Settings: PMA-differentiated THP-1, poly(dA:dT) 200 µg/ml; MM01 10 µM
Protocol: The materials and methods employed in these experiments are now described. The molecules were evaluated in the THP-1, or PMA-differentiated THP-1 cells (50 nM PMA for 24h) as described in Example 3. To stimulate NLRP1 inflammasome, cells were either mock-treated or primed with compounds at the indicated concentrations for 30 min, followed by treatment with 100 ng/mL LPS (Sigma) and 50 µg/ml MDP (Sigma) for 6 h at 37°C. In the case of NLRC4 inflammasome induction, cells were pretreated with the compounds for 30 min and then cells were stimulated for 3 h with Salmonella Typhimurium (MOI 5). To induce AIM2 inflammasome, cells were pretreated in the same conditions as before and transfected with poly(dA:dT) (200 µg/ml; Sigma) overnight using Lipofectamine 2000 (Invitrogen). Both IL-1β secretion and the release of IL-18 were monitored as previously described in Example 3.

In the case of `C=CCN1C(=O)/C(=C2/C(=O)Nc3ccccc32)SC1=S` [MM01], the IL-1β secretion was “significantly decreased”.
